Where a name gives a salt, the structure may show the parent alone.
What was measured:
plasma proteins = details: concentration range of 0.1 to 2.0 μg/mL; cited from earlier work
[1] = cited from earlier work
[2] = cited from earlier work; remark: listed apart in the source
[3] = Solubility of amantadine HCl in water; type: physicochemical; details: 160 mg, 240 mg and 320 mg of amantadine HCl

Row | solubility in water [3] | Compound | bound to plasma proteins (plasma proteins) [%] | volume of distribution ([1]; after intravenous administration) [L/kg] | reduction of renal clearance of amantadine ([1]; coadministration of quinine or quinidine) | administered dose excreted unchanged in urine ([1]; in vivo) | metabolism as share of total clearance ([1]; in vivo) | average elimination half-life ([2]; patients on chronic maintenance hemodialysis) | apparent plasma clearance ([2]; single dose 25 to 75 mg, 7 healthy elderly male volunteers, range 0.06 to 0.17) [mL/min/kg] | half-life ([2]; single dose 25 to 75 mg, 7 healthy elderly male volunteers, range 20 to 41) [h]
1 | – | NC12CC3CC(CC(C3)C1)C2 [Amantadine, amantadine] | 67 | 3 to 8 | about 30% | approximately 85% | 5-15% | eight days | 1.67 ± 0.67 | 29 ± 7
2 | soluble in 250 mL water | NC12CC3CC(CC(C3)C1)C2 [amantadine HCl, Amantadine Hydrochloride] | – | – | – | – | – | – | – | –

From patent US10213394B1, “Composition and method for treating neurological disease” (Osmotica Kereskedelmi és Szolgáltató Korlátolt Felelõsségû …, priority 2018, dated 2019)
